Literature values as cited in US12453719B2, “Treatment method using a complex of angiotensin II receptor antagonist metabolite and NEP inhibitor” (Shenzhen Salubris Pharmaceuticals Co., Ltd., priority 2019, dated 2025).
Like-named read-outs stand apart in the source and are kept apart here.

Tests used:
[1] = single oral administration of Losartan
[2] = arithmetic mean

in vivo EXP3174 exposure (AUC) relative to the prototype drug [1]: about four
AUC Losartan ([2]; single administration of Losartan 40 mg (n = 15)): 391.5 ng·h/mL
AUC Losartan ([2]; single administration of Losartan 50 mg (n = 12)): 395.0 ng·h/mL
AUC Losartan ([2]; single administration of Losartan 80 mg (n = 8)): 932.7 ng·h/mL
AUC Losartan ([2]; single administration of Losartan 120 mg (n = 8)): 1277.7 ng·h/mL
AUC Losartan ([2]; single administration of Losartan 150 mg (n = 8)): 1678.0 ng·h/mL
AUC Losartan ([2]; single administration of Losartan 200 mg (n = 15)): 2371.6 ng·h/mL
AUC Losartan ([2]; single administration of Losartan 250 mg (n = 7)): 2567.3 ng·h/mL
AUC Losartan ([2]; single administration of Losartan 300 mg (n = 7)): 3492.4 ng·h/mL
Compound: CCCCc1nc(Cl)c(CO)n1Cc1ccc(-c2ccccc2-c2nn[nH]n2)cc1 [Losartan]
